Structures are written as SMILES.

In the assay the test system is d(AAGGG)4 (DNA, G4) AAGGGAAGGGAAGGGAAGGG
The assay is described as follows: UV-vis absorption titration (Soret band); CD. To be noted: 100 mM KCl; 10 mM Tris-HCl, 0.1 mM EDTA, pH 7.4; 7 μM TMPyP4; 68% hypochromicity, 16 nm red shift.

For `C[n+]1ccc(-c2c3nc(c(-c4cc[n+](C)cc4)c4ccc([nH]4)c(-c4cc[n+](C)cc4)c4nc(c(-c5cc[n+](C)cc5)c5ccc2[nH]5)C=C4)C=C3)cc1`, the binding result is on record as “yes”.
